The values below come from US20240174638A1, “HETEROARYL DERIVATIVES AS APELIN RECEPTOR AGONISTS” (RESEARCH TRIANGLE INSTITUTE, priority 2021, published 2024).

One series deals with Rat plasma protein. As to conditions: 6 h, 1 μM.
Series [1] can be described thus: in vitro. Conditions: mouse, pH 7.4.
Series [2] is described as follows: in vitro. As to conditions: rat, pH 7.4.
Series [3] can be described thus: in vitro. As to conditions: human.
Another series concerns Mouse plasma protein. As to conditions: 6 h, 1 μM.
For another series, the system named is Human plasma protein. As to conditions: 6 h, 1 μM.
In series [4] the test system is Salmonella typhimurium (TA98, TA100, TA1535 and TA1537).
In series [5] the test system is BLEO-induced lung fibrosis in male C57BL/6 mice. Description: Chronic (21-day) bleomycin-induced lung fibrosis model, prophylactic (Px) and therapeutic (Tx) arms. Type of series: in vivo, mouse.
Where [6] appears, read: relative to Vehicle-treated BLEO-instilled controls.

For the compound `CCCC(=O)Nc1ccc(OCC(O)CNC(C)C)c(C(C)=O)c1` (stereo not drawn) [Acebutolol], in the series with Rat plasma protein, the “% Protein Bound Rep 1” value is reported as −11.35%, the “% Protein Bound Rep 2” value is reported as −26.18%, the “% Protein Bound Rep 3” value was −33.75% and the “Buffer Concentration Rep 1” value amounted to 552.8 nM. Moreover, in the series with Rat plasma protein, the “Buffer Concentration Rep 2” value is reported as 571.3 nM, the “Buffer Concentration Rep 3” value came to 639.1 nM, the “Plasma Concentration Rep 1” value is on record as 455.6 nM and the “Plasma Concentration Rep 2” value stood at 452.8 nM. For the same compound, the “Plasma Concentration Rep 3” value in the series with Rat plasma protein came out at 477.8 nM. Besides, in “in vitro [1]”, the recovery at 6 h, 1 μM worked out at 60.3%. In addition, the recovery at 6 h, 1 μM in the series “in vitro [2]” came to 105%. For the same compound, in “in vitro [3]”, the recovery at 6 h, 1 μM came to 99.4%. In the series on Mouse plasma protein, the “% Protein Bound Rep 1” value worked out at 18.36%, the “% Protein Bound Rep 2” value was 23.23%, the “% Protein Bound Rep 3” value was 20.05% and the “Buffer Concentration Rep 1” value stood at 274.4 nM. Further, in the series on Mouse plasma protein, the “Buffer Concentration Rep 2” value is listed as 258.1 nM, the “Buffer Concentration Rep 3” value stood at 268.1 nM, the “Mean % Protein Bound” value is listed as 20.50% and the “Plasma Concentration Rep 1” value worked out at 336.0 nM. In addition, in the series on Mouse plasma protein, the “Plasma Concentration Rep 2” value worked out at 336.2 nM and the “Plasma Concentration Rep 3” value worked out at 335.3 nM. In addition, in the series with Human plasma protein, the “% Protein Bound Rep 1” value was −12.84%, the “% Protein Bound Rep 2” value was −22.81%, the “% Protein Bound Rep 3” value is given as −2.59% and the “Buffer Concentration Rep 1” value is 544.3 nM. In the series with Human plasma protein, the “Buffer Concentration Rep 2” value was determined as 539.8 nM, the “Buffer Concentration Rep 3” value is recorded as 494.8 nM, the “Plasma Concentration Rep 1” value is 482.3 nM and the “Plasma Concentration Rep 2” value worked out at 439.6 nM. For the same compound, the “Plasma Concentration Rep 3” value in the series on Human plasma protein was 482.3 nM.
As for `COc1ccc2nc3cc(Cl)ccc3c(NCCCNCCCl)c2c1` [ICR-191], in series [4], the “Cytotoxicity Code” value is on record as “N”. Moreover, in series [4] (Salmonella typhimurium), the “Mean Revertant Colony Counts” value is recorded as 66.00 and the Ratio is 28.33.
Regarding `Cc1ccc(=O)n(-c2ccccc2)c1` [PIRF, Pirfenidone, reference compound], the 21-day survival rate in series [5] (BLEO-instilled mice, Px PIRF 200 mg/kg/day p.o. BID) is given as 94%. Moreover, in series [5] (D0-D21, relative to Vehicle-treated BLEO-instilled controls), the ΔBW entry is “Neither EXAMPLE 22 nor PIRF affected”. Moreover, in series [5] (Px PIRF 200 mg/kg/day, Vehicle 2.63±0.24%), the “composite Collagen Volume Fraction (CVF)” value is on record as 1.87±0.19%. For the same compound, the “composite Tissue Collagen Fraction (TCF)” value in series [5] (Px PIRF 200 mg/kg/day, Vehicle 5.58±0.34%) amounted to 4.43±0.34%. For the same compound, in series [5] (setting [6]), the “LW indexed to tibia length (LW:TL)” value is on record as “Neither EXAMPLE 22 nor PIRF affected”, the “endpoint lung OH-P content” value is on record as “Neither EXAMPLE 22 nor PIRF affected”, the “endpoint lung weight (LW)” value was “Neither EXAMPLE 22 nor PIRF affected” and the “final BW” value is “Neither EXAMPLE 22 nor PIRF affected”. Further, the “serial BW” value in series [5] (setting [6]) is “Neither EXAMPLE 22 nor PIRF affected”.
As to `CC(=O)CC(c1ccccc1)c1c(O)c2ccccc2oc1=O` (stereo not drawn) [Warfarin], in the series on Rat plasma protein, the “% Protein Bound Rep 1” value was determined as 99.46%, the “% Protein Bound Rep 2” value stood at 99.25%, the “% Protein Bound Rep 3” value turned out to be 97.82% and the “Buffer Concentration Rep 1” value worked out at 4.4 nM. Further, in the series with Rat plasma protein, the “Buffer Concentration Rep 2” value is reported as 5.9 nM, the “Buffer Concentration Rep 3” value is 17.7 nM and the “Mean % Protein Bound” value is given as 98.80%. In the series “in vitro [1]”, this compound came in with a recovery at 6 h, 1 μM of 98.2%. Further, the recovery at 6 h, 1 μM in “in vitro [2]” came to 81.4%. In the series “in vitro [3]”, this compound came in with a recovery at 6 h, 1 μM of 95.4%. In addition, in the series on Mouse plasma protein, the “% Protein Bound Rep 1” value came out at 89.13%, the “% Protein Bound Rep 2” value is 90.27%, the “% Protein Bound Rep 3” value is 91.02% and the “Buffer Concentration Rep 1” value worked out at 91.8 nM. Besides, in the series with Mouse plasma protein, the “Buffer Concentration Rep 2” value is given as 89.5 nM, the “Buffer Concentration Rep 3” value came to 82.3 nM, the “Mean % Protein Bound” value was found to be 90.10% and the “Plasma Concentration Rep 2” value is 919.8 nM. The “Plasma Concentration Rep 3” value in the series on Mouse plasma protein is 917.0 nM. Also, in the series on Human plasma protein, the “% Protein Bound Rep 1” value came out at 97.59%, the “% Protein Bound Rep 2” value amounted to 98.26%, the “% Protein Bound Rep 3” value turned out to be 98.01% and the “Buffer Concentration Rep 1” value was found to be 21.6 nM. Further, in the series with Human plasma protein, the “Buffer Concentration Rep 2” value worked out at 17.3 nM, the “Buffer Concentration Rep 3” value was found to be 18.4 nM, the “Mean % Protein Bound” value amounted to 97.96% and the “Plasma Concentration Rep 1” value came out at 897.5 nM. Moreover, in the series on Human plasma protein, the “Plasma Concentration Rep 2” value was determined as 993.2 nM and the “Plasma Concentration Rep 3” value was found to be 926.2 nM.
